Results: US7740867B2, “Method for identification of virulence determinants” (priority 2000, dated 2010)

Tests used:
[1] = test system: M. paratuberculosis strain K-10; experiment: Susceptibility of growing and non-growing M. paratuberculosis in broth culture to antimicrobial agents; type: cell-based, Mycobacterium paratuberculosis
Method: Antimicrobial agents (antibiotics) tested were the fluoroquinolone Bay y 3118, and D-cycloserine. The aminoglycoside amikacin which kills both growing and non-growing M. paratuberculosis, was included as a control. M. paratuberculosis strain K-10 was grown in complete Middlebrook 7H9 medium containing mycobactin J as described above to an optical density (OD600) of 0.3 to 0.4. For non growing conditions, cells (200 ml) were harvested at room temperature, washed in MSS (Middlebrook 7H9 salt solution: 1.0 g/L KH2PO4, 0.05 g/L MgSO4, NH4SO4, 2.5 g/L Na2HPO4, 0.0005 g/L CaCl2, 0.001 g/L ZnSO4, and 0.001 g/L CuSO4), and resuspended in MSS as a single-cell suspension (Williams et al., J. Clin. Microbiol., 37:304-309, 1999). Aliquots (10 ml at a cell density of 2×10^8 CFU/mL) were placed in sterile tissue culture flasks, and antibiotics were added at the following final concentrations Bay y 3118: 0.075 μg/mL (5×MIC) and 0.3 μg/mL (20×MIC); D-cyloserine: 125 μg/mL (5×MIC) and 500 μg/mL (20×MIC); amikacin: 10 μg/mL (5×MIC), and 40 μg/mL (20×MC). These cultures and a control without antibiotics (0×) were incubated at 37° C. and appropriate dilutions were plated in triplicate onto complete Middlebrook 7H9 medium at various time points. […] For growing conditions, cells were treated as described except that the growth control (0×) was diluted 1:10 and all cells were washed and resuspended in complete medium instead of MSS. The cells were also inoculated into MSS (no-growth control).

[2] = test system: M. paratuberculosis strain K-10; experiment: Minimal inhibitory concentration (MIC) determination; type: cell-based, Mycobacterium paratuberculosis
Source text: The exact amount of the antimicrobial used will vary with the particular substance and organism in question. In general, the concentration of the antimicrobial should exceed the approximate minimal inhibitory concentration (MIC) for the particular organism being studied. Determination of MIC is routine in the art and can be accomplished by the skilled technician without undue experimentation. […] In another embodiment, the concentration of Bay y 3118 is 5× the MIC. […] In yet another embodiment, the concentration of D-cycloserine is 5× the MIC.

[3] = test system: Mycobacterium avium within human macrophages; conditions: reported by Bermudez et al., 1999; cited from earlier work
[4] = 5× the MIC, MSS salt solution (non growing conditions), 37° C., FIG. 3
[5] = 5× the MIC, complete Middlebrook 7H9 medium (growing conditions), 37° C., FIG. 3

## NCC[C@H](O)C(=O)N[C@@H]1C[C@H](N)[C@@H](O[C@H]2O[C@H](CN)[C@@H](O)[C@H](O)[C@H]2O)[C@H](O)[C@H]1O[C@H]1O[C@H](CO)[C@@H](O)[C@H](N)[C@H]1O [Amikcin, amikacin]
[1]; concentration not given (5× and 20× MIC tested)
  susceptibility of bacteria in stasis compared with growing bacteria: particularly more susceptible
[1]; concentration not given (5× and 20× MIC tested), growing conditions
  effect on growing bacteria: bactericidal
[1]; concentration not given (5× and 20× MIC tested), non growing conditions
  effect on non growing bacteria: bactericidal

## N[C@@H]1CONC1=O [D-cycloserine]
[2]
  MIC: approximately 25 μg/mL
[1]; [4]
  effect on non growing bacteria: moderate bactericidal effect
[1]; [5]
  effect on growing bacteria: moderate bactericidal effect
[1]; 20× the MIC, MSS salt solution (non growing conditions), 37° C., FIG. 3
  effect on non growing bacteria: moderate bactericidal effect
[1]; 20× the MIC, complete Middlebrook 7H9 medium (growing conditions), 37° C., FIG. 3
  effect on growing bacteria: moderate bactericidal effect

## Cl.O=C(O)c1cn(C2CC2)c2c(Cl)c(N3C[C@@H]4CCCN[C@@H]4C3)c(F)cc2c1=O [Bay y 3118]
[2]
  MIC: approximately 0.015 μg/mL
[1]; [4]
  effect on non growing bacteria: does not kill non growing bacteria
[1]; [5]
  effect on growing bacteria: has a bactericidal action on growing bacteria
[3]
  killing of growing versus non-growing Mycobacterium avium within human macrophages: kill growing but not non-growing
